Source: paper PMC7738283, “Discovery of orally active chalcones as histone lysine specific demethylase 1 inhibitors for the treatment of leukaemia” (Journal of Enzyme Inhibition and Medicinal Chemistry, 2020)
Entries after “also recorded” stand apart in the source; their conditions may differ.

Columns and labels:
[1] = test system: MOLT-4 cells; assay: MTT cell viability assay, MOLT-4; assay type: cell-based, human
Protocol: All cell lines were purchased from the China Centre for Type Culture Collection (CCTCC, China). […] Then, 20 μL of MTT (3–(4,5-dimethylthiazol-2-yl)-2,5-diphenyltetrazolium bromide) solution (5 mg/ml) was added and the cells were incubated for 4 h. The absorbance was measured using a microplate reader (DeTie Technology Co., Ltd, NanJing, China).

[2] = test system: H3K9me1 and H3K9me2 in MOLT-4 cells; assay: Western blotting of LSD1 substrates H3K9me1/2 in MOLT-4 cells; assay type: cell-based, human; settings: western blot
Protocol: Western blot was performed with the total lysates using RIPA buffer (Hyclone, Los Angeles, CA, USA). Same amounts of protein were subjected to SDS-PAGE, and then transferred to nitrocellulose membranes (PALL, Cortland, NY, USA). After blocking with 5% milk solution, the membranes were incubated at 4 °C with respective antibody overnight, followed by the incubation with a secondary antibody. Finally, the blot was visualised by enhanced chemiluminescence kit (Thermo Fisher, Waltham, MA, USA).

[3] = target: CDK2 (Homo sapiens, UniProt P24941); assay: CDK2 enzyme assay; assay type: biochemical; settings: 400 nM; read-out: inhibition rate CDK2
Protocol: (§3) The inhibition of LSD1 activity was evaluated according to reported references [23, 24]. pET-28b-LSD1 (full length) was transfected into BL21 (DE). Then, the protein was induced with 0.25 mmol/L IPTG following sonication and purified with Ni-NTA (Qiagen, Tubingen, Germany), Resource Q (GE, Pittsburgh, PA, USA) and Sephacryl S-200 HR (GE, Pittsburgh, PA, USA). The fluorescence intensity was read using EnVision Plate Reader (PerkinElmer, Waltham, MA, USA) to calculate the inhibition rate. […] The inhibitory activities of CDK1 and CDK2 were obtained according to the reported reference [26].

[4] = test system: MOLT-4 xenograft; assay: MOLT-4 xenograft study; assay type: in vivo; settings: 60 mg/kg and 100 mg/kg, intragastric, 21 days
Protocol: Animals were treated according to the protocols established by the ethics committee of Shengjing Hospital of China Medical University and the in vivo experiments were carried out in accordance with the approved guidelines and approved by the ethics committee of Shengjing Hospital of China Medical University. BALB/c nude mice were purchased from Hunan Slack Scene of Laboratory Animal Co., Ltd. (Hunan, China). Xenograft models using human leukaemia cells, MOLT-4, were established in BALB/c mice. Then, mice were separated into vehicle group and treatment groups (60 mg/kg and 100 mg/kg). The treatment groups received compound D6 by intragastric administration for a period of 21 days.

[5] = target: T1, MAO-B (Homo sapiens, UniProt P27338); assay: MAO-B inhibition assay (MAO-Glo kit); assay type: biochemical
T1 construct: purchased Active Motif 31503
T1 sequence (P27338 1-520): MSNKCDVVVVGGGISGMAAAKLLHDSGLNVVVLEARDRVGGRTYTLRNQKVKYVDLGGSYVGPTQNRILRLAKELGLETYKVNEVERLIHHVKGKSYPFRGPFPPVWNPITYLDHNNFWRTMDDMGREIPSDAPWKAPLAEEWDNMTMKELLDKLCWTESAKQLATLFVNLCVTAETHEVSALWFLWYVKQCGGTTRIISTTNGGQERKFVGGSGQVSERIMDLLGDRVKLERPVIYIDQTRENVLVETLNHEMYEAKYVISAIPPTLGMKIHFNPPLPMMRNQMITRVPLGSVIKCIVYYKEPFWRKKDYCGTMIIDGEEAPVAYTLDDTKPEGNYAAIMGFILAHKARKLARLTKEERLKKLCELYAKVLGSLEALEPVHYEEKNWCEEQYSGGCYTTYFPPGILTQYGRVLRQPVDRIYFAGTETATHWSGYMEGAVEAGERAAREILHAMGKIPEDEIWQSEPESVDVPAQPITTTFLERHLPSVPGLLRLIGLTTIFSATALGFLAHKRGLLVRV
Protocol: (§1) The inhibition of LSD1 activity was evaluated according to reported references. pET-28b-LSD1 (full length) was transfected into BL21 (DE). Then, the protein was induced with 0.25 mmol/L IPTG following sonication and purified with Ni-NTA (Qiagen, Tubingen, Germany), Resource Q (GE, Pittsburgh, PA, USA) and Sephacryl S-200 HR (GE, Pittsburgh, PA, USA). The fluorescence intensity was read using EnVision Plate Reader (PerkinElmer, Waltham, MA, USA) to calculate the inhibition rate. The MAO-A and MAO-B were purchased from Active Motif (Cat#31502, Cat#31503, Carlsbad, CA, USA). Biochemical Kits were purchased from Promega (MAO-Glo Assay, Madison, WI, USA). The inhibitory activities of MAO-A and MAO-B were obtained according to the reported reference. The inhibitory activities of CDK1 and CDK2 were obtained according to the reported reference.

[6] = target: CDK1 (Homo sapiens, UniProt P06493); assay: CDK1 enzyme assay; assay type: biochemical; settings: 400 nM; read-out: inhibition rate CDK1
Chain of CDK1 (P06493 whole entry, species assumed): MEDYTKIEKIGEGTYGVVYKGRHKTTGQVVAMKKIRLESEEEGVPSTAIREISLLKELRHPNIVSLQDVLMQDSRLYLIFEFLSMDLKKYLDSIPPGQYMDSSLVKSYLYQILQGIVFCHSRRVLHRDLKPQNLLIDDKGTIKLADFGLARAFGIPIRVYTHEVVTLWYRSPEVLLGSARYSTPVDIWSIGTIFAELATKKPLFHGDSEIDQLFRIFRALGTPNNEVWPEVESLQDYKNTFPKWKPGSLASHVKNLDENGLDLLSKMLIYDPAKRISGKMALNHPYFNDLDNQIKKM
Chain of CDK1 (P14635 whole entry partner, species assumed): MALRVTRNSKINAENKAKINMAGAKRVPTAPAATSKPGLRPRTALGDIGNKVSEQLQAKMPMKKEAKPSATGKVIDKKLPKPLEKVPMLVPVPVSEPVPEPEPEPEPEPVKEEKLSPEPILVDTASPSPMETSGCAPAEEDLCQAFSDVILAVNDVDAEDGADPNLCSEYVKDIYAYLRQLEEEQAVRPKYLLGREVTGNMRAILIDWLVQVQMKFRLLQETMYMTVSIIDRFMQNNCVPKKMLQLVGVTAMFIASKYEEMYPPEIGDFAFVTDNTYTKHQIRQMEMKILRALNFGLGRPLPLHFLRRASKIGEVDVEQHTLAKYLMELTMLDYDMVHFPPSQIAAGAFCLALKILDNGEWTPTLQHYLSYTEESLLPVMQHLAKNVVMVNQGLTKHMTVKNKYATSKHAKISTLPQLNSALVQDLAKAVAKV
Protocol: as §3

[7] = test system: 22RV1 (prostate cancer cells); assay: MTT cell viability assay, 22RV1; assay type: cell-based; settings: 4, 8, 16 μM; 48 h and 72 h
Protocol: (§2) Cancer cell lines (Hela, 22RV1, Caco-2, BEL-7402, MOLT-4, OVCAR-3, HCT-8, HIC, IMR-32, HAL-01, KE-37, P30-OHK, SUP-B15 and LC4-1) were maintained in RPMI 1640 medium (Hyclone, Los Angeles, CA, USA) with 10% foetal bovine serum (Hyclone, Los Angeles, USA) and 1% penicillin-streptomycin (Hyclone, Los Angeles, USA) in a humidified atmosphere of 5% CO2 and 95% air at 37 °C. All cell lines were purchased from the China Centre for Type Culture Collection (CCTCC, China). Control containing sequence specific for LSD1 ([…]) was described. The shRNA constructs were transfected into MOLT-4 cells using the Lonza Group nucleofector technology in accordance with the manufacturer’s instructions. MOLT-4&shLSD1 cells and MOLT-4&shControl cells were also established and cultured according to the published references. After the incubation for 24 h, cancer cell lines were cultured with the chalcone D6 at different concentrations. Then, 20 μL of MTT (3–(4,5-dimethylthiazol-2-yl)-2,5-diphenyltetrazolium bromide) solution (5 mg/ml) was added and the cells were incubated for 4 h. The absorbance was measured using a microplate reader (DeTie Technology Co., Ltd, NanJing, China).

[8] = test system: IMR-32 (neuroblastoma cells); assay: MTT cell viability assay, IMR-32; assay type: cell-based; settings: 4, 8, 16 μM; 48 h and 72 h
Protocol: as §2

[9] = test system: Caco-2 (colon cancer cells); assay: MTT cell viability assay, Caco-2; assay type: cell-based; settings: 4, 8, 16 μM; 48 h and 72 h
Protocol: as §2

[10] = target: T2, MAO-A (Homo sapiens, UniProt P21397); assay: MAO-A inhibition assay (MAO-Glo kit); assay type: biochemical
T2 construct: purchased Active Motif 31502
T2 sequence (P21397 1-527): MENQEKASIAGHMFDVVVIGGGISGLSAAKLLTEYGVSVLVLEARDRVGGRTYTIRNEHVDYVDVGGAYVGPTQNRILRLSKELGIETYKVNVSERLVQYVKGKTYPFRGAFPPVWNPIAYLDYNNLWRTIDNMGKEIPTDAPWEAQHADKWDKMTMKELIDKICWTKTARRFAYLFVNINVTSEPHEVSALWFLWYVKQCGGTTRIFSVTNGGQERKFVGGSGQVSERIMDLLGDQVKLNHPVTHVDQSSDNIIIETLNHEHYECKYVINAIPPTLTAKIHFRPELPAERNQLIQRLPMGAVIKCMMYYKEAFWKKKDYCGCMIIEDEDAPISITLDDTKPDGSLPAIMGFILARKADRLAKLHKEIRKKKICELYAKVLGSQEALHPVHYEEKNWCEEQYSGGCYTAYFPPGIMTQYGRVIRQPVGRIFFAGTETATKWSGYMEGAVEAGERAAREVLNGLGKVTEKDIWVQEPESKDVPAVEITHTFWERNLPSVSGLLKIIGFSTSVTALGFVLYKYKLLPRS
Protocol: as §1

Compound: CC(C)(C)OC(=O)N1CCN(C(=S)SCC(=O)Nc2ccc(C(=O)/C=C/c3ccccc3F)cc2)CC1 [D6, Tert-butyl-(E)-4-(((2-((4–(3-(2-fluorophenyl)acryloyl)phenyl)amino)-2-oxoethyl)thio)carbonothioyl)piperazine-1-carboxylate]
- antiproliferative effects (cell viability) MOLT-4 ([1]; 4, 8, 16 μM, 48 h and 72 h): potential antiproliferative effects
- antiproliferation efficiency ([1]; MOLT-4 cells, 48 h, 4 μM): around 80%
- amount of H3K9me1 and H3K9me2 [2]: induce the accumulation of H3K9me1/2; also recorded: concentration dependent accumulation; also recorded: up-regulated the expression levels of H3K9me1 and H3K9me2
- expression level of LSD1 [2]: did not affect
- inhibition at 0.4 µM [3]: 19%
- body weight of mice [4]: almost unchanged
- global toxicity in xenograft model [4]: low global toxicity; also recorded: without apparent toxicity
- tumour growth (tumour volume, tumour weight) [4]: significantly suppressed MOLT-4 xenograft tumour growth; also recorded: inhibited tumour growth remarkably; also recorded: inhibited in vivo tumour growth
- inhibition at 0.4 µM ([5]; 400 nM, read-out: inhibition rate MAO-B): 17.7%
- IC50 ([5]; in vitro, MAO-AB [sic]): > 20 µM
- inhibition at 0.4 µM [6]: 16.3%
- antiproliferative effects (cell viability) 22RV1 [7]: potential antiproliferative effects
- antiproliferative effects (cell viability) IMR-32 [8]: potential antiproliferative effects
- antiproliferative effects (cell viability) Caco-2 [9]: potential antiproliferative effects
- inhibition at 0.4 µM ([10]; 400 nM, read-out: inhibition rate MAO-A): 16.3%
- IC50 ([10]; in vitro): > 20 µM
